# US11360080B2, “AhR-ROR-γt complex as a biomarker and therapeutic target for autoimmune disease and IL-17A-associated disease” (NATIONAL HEALTH RESEARCH INSTITUTES, priority 2018, dated 2022)
# Legend:
# [1] = test system: in vitro differentiated Th17 cells; experiment: IL-17A production of in vitro differentiated Th17 cells, flow cytometry; assay type: cell-based, mouse; conditions: PMA plus ionomycin, 1 or 5 μM for 30 min
# Method: (A) Flow cytometry of IL-17A-producing CD4^+ T cells. Splenic T cells were co-treated with verteporfin (C1) (1 or 5 μM) during Th17 differentiation in vitro. (B) Flow cytometry of IL-17A-producing CD4^+ T cells. Murine in vitro differentiated Th17 cells were stimulated with PMA plus ionomycin and co-treated with verteporfin (C1) (1 or 5 μM) for 30 min. (C) Flow cytometry of Foxp3-producing […] T cells. Splenic T cells were co-treated with verteporfin (C1) (5 μM) during Treg differentiation in vitro. (D) Flow cytometry of Foxp3-producing CD4^+ T cells, which were differentiated from CD4^+ T cells of wild-type or Lck-GLK transgenic mice.
# Lck-GLK Tg mice = experiment: Treatment of Lck-GLK Tg mice, serum ELISA; assay type: in vivo, mouse; conditions: 0.556 nmole/g i.v. every 3 days for 30 days
# Excerpt: (A to C) Effect of the GLK inhibitor C1 (verteporfin) administration (0.556 nmole/g every 3 days for 30 days) on serum IL-17A and autoantibodies in Lck-GLK Tg mice. (B) ELISA of indicated serum cytokines in Lck-GLK Tg mice treated with C1 (verteporfin) or PBS. (C) ELISA of serum autoantibodies in Lck-GLK Tg mice treated with C1 (verteporfin) or PBS. Means±SEM are shown. (D) Experimental autoimmune encephalomyelitis (EAE) induction in wild-type mice treated with PBS, or the GLK inhibitor C1 (verteporfin) and C2. Clinical scores are presented on a scale of 1 to 5 (left panel). ELISA of IL-17A in the sera from MOG-immunized mice at day 16 (right panel). (E) Collagen-induced arthritis (CIA) induction in wild-type mice treated with the GLK inhibitor C1 (verteporfin) or PBS. Clinical scores are presented on a scale of 1 to 16 (left panel). ELISA of IL-17A in the sera from collagen-immunized mice at day 28. […]
# Serum levels of IL-1β, IL-4, IL-6, IL-12, IL-17F, IL-21, IL-22, IL-23, IFN-γ, TNF-α, and TGF-β were analyzed by individual ELISA kits purchased from eBioscience. The IL-17A levels were determined using an ELISA kit from Biolegend. The serum levels of anti-nuclear antibodies (ANA), anti-dsDNA antibody, and rheumatoid factor (RF) were analyzed by ELISA kits purchased from Alpha Diagnostic International. […]
# AhR-RORγt complex = experiment: Proximity ligation assay (PLA) in peripheral blood T cells of SLE and RA patients; assay type: cell-based, human; conditions: 5 μM for 30 min
# Method: (A) Luciferase activity of NF-κB-driven reporter assays in stable GLK-transfected CHO-K1 cells that were treated with or without the GLK inhibitor C1 (verteporfin) under the indicated concentration. The fold changes are presented relative to the value of vector control. (B) Recombinant proteins of GLK kinase domain plus recombinant proteins of GST-tagged kinase-dead PKCθ (K409W) were subjected to in vitro kinase assays in the presence or absence of the GLK inhibitor C1 (verteporfin). Means±SD of are shown. *, P value<0.05; **, P value<0.01 (two-tailed Student's t-test). (C) The AhR-RORγt complex was inhibited by the GLK inhibitor. […] (D) Quantification of the PLA signals of (C). […]
# PLA assays were performed using the DUOLINK® In Situ Red Starter kit (Sigma) according to the manufacturer's instructions. […] After ligation and amplification reactions, the PLA signals from each pair of PLA probes in close proximity (<40 nm) were visualized as individual red dots by a fluorescence microscope (Leica DM2500) or a confocal microscope (Leica TCS SP5II). […]
# T cells of Lck-GLK transgenic mice, GLK-overexpressing T cells, activated T cells or AhR+RORγt+IKKβ-overexpressing cells were used. […] After ligation and amplification reactions, the PLA signals from each pair of PLA probes in close proximity ([…]) were visualized as individual red dots by a fluorescence or a confocal microscope. […]
smiles,measurement,setting,value
"C=Cc1c(C)c2cc3nc(cc4[nH]c(cc5nc(cc1[nH]2)C(C)=C5CCC(=O)O)c(CCC(=O)OC)c4C)[C@@]1(C)C3=CC=C(C(=O)OC)[C@H]1C(=O)OC [C1, verteporfin]",IL-17A production from in vitro differentiated Th17 cells,[1],inhibited
same,overproduction of autoantibodies,Lck-GLK Tg mice,abolished
same,serum IL-17A levels,Lck-GLK Tg mice; vs PBS,significantly decreased
same,AhR-RORγt complex in T cells from SLE and RA patients,AhR-RORγt complex,blocked
same,PLA signals (quantification) of AhR with RORγt or phospho-RORγt (S489),AhR-RORγt complex,inhibited
